The text below walks through data of PubChem BioAssay (NCI).

“And” between values parts separate entries of the source, which are not always exact repeats. Identical values can stand only once.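 Interpolation was linear, between the two tested concentrations surrounding the appropriate level; five concentrations were tested over 48 hours in 96-well plates. GI50 = concentration required for 50% inhibition of growth. TGI denotes the concentration required for complete inhibition of growth.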 Where only a bound is given, the exact number is not on record here.

Some test systems named below: BT-549 breast; 786-0 renal; MDA-MB-231 breast; OVCAR-4 ovarian; MCF7 breast; NCI/ADR-RES ovarian.
What all share (assay): inhibition of tumour cell growth, NCI panel, 48 h

As to `COC1=C(C)C(=O)c2c(c(COC(N)=O)c3n2CC2C3N2C)C1=O` (stereo unspecified), the TGI in the assay on BT-549 breast was 0.167 µM; in the assay with 786-0 renal it was 0.102 µM; with MDA-MB-231 breast, 0.409 µM; in the assay with OVCAR-4 ovarian, 0.244 µM; with MCF7 breast, under 0.027 µM; with NCI/ADR-RES ovarian, 0.336 µM.
For the molecule `CC(C)n1nc(-c2cc3cc(O)ccc3[nH]2)c2c(N)ncnc21`, the GI50 in the assay with BT-549 breast is 0.147 µM; with 786-0 renal, 0.294 µM; with MDA-MB-231 breast, 0.296 µM; in the assay with OVCAR-4 ovarian, 0.0827 µM; in the assay with MCF7 breast, 0.128 µM; in the assay on NCI/ADR-RES ovarian, 0.348 µM. Also, the TGI came out at 1.85 µM in the assay on BT-549 breast; 2.88 µM in the assay on 786-0 renal; 17.4 µM in the assay with MDA-MB-231 breast; 0.923 µM in the assay on OVCAR-4 ovarian; 7.86 µM in the assay with MCF7 breast; 7.22 µM in the assay with NCI/ADR-RES ovarian.
Regarding `Cc1cccc(N2CCN(C(=S)c3ccc4c(c3)OCO4)CC2)c1`, the GI50 in the assay with 786-0 renal was 7.97 µM; in the assay on MDA-MB-231 breast, 0.861 µM; in the assay with OVCAR-4 ovarian it was 67.7 µM; in the assay on MCF7 breast it was 0.571 µM; with NCI/ADR-RES ovarian, 0.338 µM. Also, the TGI with 786-0 renal, in the assay on MDA-MB-231 breast, in the assay on OVCAR-4 ovarian, in the assay on MCF7 breast and in the assay with NCI/ADR-RES ovarian was over 100 µM throughout.
Turning to `NP(=O)(Oc1c2occc2cc2ccc(=O)oc12)N(CCCl)CCCl` (stereo unspecified), the TGI in the assay with BT-549 breast, in the assay with 786-0 renal, in the assay on MDA-MB-231 breast, in the assay on OVCAR-4 ovarian, in the assay on MCF7 breast and in the assay with NCI/ADR-RES ovarian was over 100 µM in each case.
Consider `COc1ccc(/C=C/c2ccnc3ccccc23)c(OC)c1`, for which the TGI with BT-549 breast, in the assay on 786-0 renal, in the assay on MDA-MB-231 breast, in the assay on OVCAR-4 ovarian, in the assay with MCF7 breast and in the assay on NCI/ADR-RES ovarian was over 10 µM each time.
`COc1cc2c3c(n(CCCNC(=O)OCC4c5ccccc5-c5ccccc54)c(=O)c2cc1OC)-c1cc2c(cc1/C3=C\CCNC(=O)OCC1c3ccccc3-c3ccccc31)OCO2`: the GI50 is 12.4 µM in the assay on BT-549 breast; over 16.2 µM with 786-0 renal; over 19 µM in the assay with MDA-MB-231 breast; over 50 µM in the assay on OVCAR-4 ovarian; over 38 µM in the assay with NCI/ADR-RES ovarian. Also, the TGI in the assay on BT-549 breast was over 50 µM; in the assay on 786-0 renal, over 29.8 µM; with MDA-MB-231 breast it was over 44 µM; in the assay on OVCAR-4 ovarian, over 50 µM; with MCF7 breast, over 18.5 µM; in the assay on NCI/ADR-RES ovarian, over 50 µM.
Take `CCCCCCCC/C=C/CCCCCCCC(=O)OC[C@H]1O[C@@H](n2ccc(N)nc2=O)C(F)(F)[C@@H]1O`: the TGI is over 60.6 µM in the assay with BT-549 breast; 2.56 µM in the assay with 786-0 renal; over 100 µM in the assay on MDA-MB-231 breast; over 100 µM with OVCAR-4 ovarian; over 100 µM with MCF7 breast; over 100 µM in the assay on NCI/ADR-RES ovarian. Also, the GI50 is under 0.0139 µM in the assay on 786-0 renal; 7.98 µM in the assay on MDA-MB-231 breast; over 100 µM with OVCAR-4 ovarian; under 0.01 µM in the assay on MCF7 breast; under 0.0217 µM in the assay with NCI/ADR-RES ovarian.
Turning to `NS(=O)(=O)c1ccc(NC2(C(=O)O)CCCC2)cc1`, the TGI in the assay with BT-549 breast, in the assay on 786-0 renal, with MDA-MB-231 breast, in the assay on OVCAR-4 ovarian, with MCF7 breast and in the assay on NCI/ADR-RES ovarian was over 100 µM in each case.
As to `CCCN1CCC(=O)N(CCC(F)(F)C(F)(F)C(F)(F)C(F)(F)C(F)(F)C(F)(F)F)C1=S`, the TGI in the assay with BT-549 breast, in the assay on 786-0 renal, in the assay on MDA-MB-231 breast, with OVCAR-4 ovarian and with MCF7 breast was over 100 µM in each case.
In the case of `CN1C(=O)c2cccc3cc([N+](=O)[O-])cc(c23)C1=O`, the TGI in the assay on BT-549 breast, with 786-0 renal, in the assay with MDA-MB-231 breast, in the assay on OVCAR-4 ovarian, in the assay with MCF7 breast and in the assay with NCI/ADR-RES ovarian was over 10 µM in each case.
Regarding `C=C1C(=O)O[C@@H]2/C=C(\C)CC/C=C(/COC(C)=O)C[C@@H](OC(C)=O)[C@@H]12`, the TGI worked out at 16.7 µM with BT-549 breast; 17.7 µM in the assay with 786-0 renal; 28.5 µM in the assay with MDA-MB-231 breast; 45.1 µM in the assay with OVCAR-4 ovarian; 17 µM in the assay on MCF7 breast; 57.8 µM with NCI/ADR-RES ovarian.
For `Cc1cc(C(=O)Nc2ncc(Cc3cccc(C(F)(F)F)c3)s2)c2ccccc2n1`, the GI50 is 3.61 µM in the assay with BT-549 breast; 2.84 µM in the assay on 786-0 renal; 4.02 µM in the assay with OVCAR-4 ovarian; 0.579 µM in the assay with MCF7 breast; 2.06 µM with NCI/ADR-RES ovarian. Moreover, the TGI with BT-549 breast, in the assay on 786-0 renal, with OVCAR-4 ovarian, in the assay on MCF7 breast and in the assay with NCI/ADR-RES ovarian was over 100 µM in each case.
Regarding `NCC1Nc2ccccc2[C@@H](O)C1O` (stereo partly specified), the TGI with 786-0 renal, in the assay with MDA-MB-231 breast, with OVCAR-4 ovarian, in the assay on MCF7 breast and in the assay with NCI/ADR-RES ovarian was over 100 µM in each case.
For `Clc1nc(Cl)c(Cl)c(-c2ccccc2)n1`, the TGI is 7.81 µM in the assay with BT-549 breast; 7.45 µM in the assay on 786-0 renal; 20.6 µM in the assay on OVCAR-4 ovarian; 48.7 µM in the assay with MCF7 breast; over 100 µM in the assay with NCI/ADR-RES ovarian.
Turning to `Cc1cn(C2CC(N(O)Cc3ccccc3)C(CO[Si](C)(C)C(C)(C)C)O2)c(=O)[nH]c1=O` (stereo unspecified), the TGI in the assay with BT-549 breast is 34.7 µM and 30 µM; in the assay with 786-0 renal, 30.1 µM and 31.1 µM; with MDA-MB-231 breast it was 32.6 µM and 31.3 µM; with OVCAR-4 ovarian, 83.6 µM and 31.5 µM; with MCF7 breast, > 100 µM and 35.1 µM.
Consider `COc1ccccc1CNCCCN1C(=O)c2ccc3c4c(ccc(c24)C1=O)C(=O)N(CCCOCCCCOCCCN)C3=O`, for which the GI50 in the assay on 786-0 renal is 1.53 µM; with MDA-MB-231 breast, 1.08 µM; in the assay with OVCAR-4 ovarian, 0.193 µM; with NCI/ADR-RES ovarian, 1.46 µM. Also, the TGI in the assay on 786-0 renal was found to be 3.84 µM; with MDA-MB-231 breast it was 4.14 µM; in the assay on OVCAR-4 ovarian it was 0.54 µM; with NCI/ADR-RES ovarian, 4.37 µM.
On to `COc1ccc(Cn2cc3c(c2-c2ccccc2)CC(C)(C)c2cnoc2-3)cc1`, for which the GI50 is 4.1 µM in the assay on 786-0 renal, 3.46 µM in the assay with MDA-MB-231 breast, 5.23 µM in the assay with OVCAR-4 ovarian and 0.87 µM in the assay with MCF7 breast. The TGI in the assay on 786-0 renal, in the assay on MDA-MB-231 breast, in the assay on OVCAR-4 ovarian and in the assay with MCF7 breast was over 100 µM each time.
